Results filed as inconclusive are left out. Calls of active or inactive are those of the source. No rule for the calls is given here.
Biological target: CAAX prenyl protease 2 (Saccharomyces cerevisiae (strain ATCC 204508 / S288c)) (UniProt Q03530)
Test: Rce1p protease inhibitors, dose response, biochemical, plate reader, cherry-pick (AID 488788)
Conditions: Rce1p enzyme activity, at 10 µM (top of the series)

Chain of CAAX prenyl protease 2 (Saccharomyces cerevisiae (strain ATCC 204508 / S288c)) (Q03530 whole entry, looked up): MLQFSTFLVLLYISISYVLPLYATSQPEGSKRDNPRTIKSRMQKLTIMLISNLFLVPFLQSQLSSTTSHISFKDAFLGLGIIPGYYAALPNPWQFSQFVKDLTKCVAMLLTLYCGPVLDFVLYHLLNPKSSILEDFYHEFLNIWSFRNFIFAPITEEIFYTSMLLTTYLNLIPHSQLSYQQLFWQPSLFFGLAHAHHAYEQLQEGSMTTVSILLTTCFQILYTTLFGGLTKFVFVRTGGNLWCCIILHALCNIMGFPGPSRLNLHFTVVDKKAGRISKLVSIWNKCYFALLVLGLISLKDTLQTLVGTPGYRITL

Row | SMILES | activity change, negative = inhibition
1 | Nc1c(C(=O)NCc2ccccc2)sc2nc(N3CCOCC3)c3c(c12)CCCC3 | inactive
2 | COc1ccc(/C=C/c2nc3ccccc3n2C)cc1 | inactive
3 | O=C(Nc1cc(S(=O)(=O)N2CCCCC2)ccc1Cl)c1ccccc1NS(=O)(=O)c1ccc(F)cc1 | inactive
4 | CC1CCC/C(=C\Nc2ccccc2C(=O)O)C1=O (configuration not stated) | inactive
5 | CSc1ccc(/C=C/C(=O)OCC(=O)NC(C)C)cc1 | inactive
6 | N=C(N)c1ccc(/C=C/c2ccc(C(=N)N)cc2O)cc1 | inactive
7 | CCN1CCN(CC(O)COc2ccc3c(C)cc(=O)oc3c2)CC1 (configuration not stated) | inactive
8 | C=CCn1c(O)c(C(CC)=Nc2ccc(N(CC)CC)cc2)c(=O)[nH]c1=O | inactive
9 | COC(C/C=C/[C@@H](O)[C@H](C)OCc1ccccc1)OC | inactive
10 | c1ccc(C[n+]2cccc3c4ccccc4ccc32)cc1 | inactive
11 | Cc1cc2cc(C(=O)N3CCc4c([nH]c5ccccc45)C3c3ccccn3)ccc2o1 (configuration not stated) | inactive
12 | COc1ccc(-c2cc3ccccc3n2CC(O)CNCCO)cc1 (configuration not stated) | inactive
13 | Cc1ccc(C(=O)c2c3ccc(C(F)(F)F)cc3[n+]([O-])n2CCCC(N)=O)cc1 | inactive
14 | COc1cc2c(cc1OC)C(C)N(C(=O)c1cc3c(=O)oc4ccc(C)cc4c3s1)CC2 (configuration not stated) | inactive
15 | NS(=O)(=O)c1ccc(NC(=O)/C=C/c2cn(-c3ccccc3)nc2-c2cccc(Cl)c2)cc1 | inactive
16 | Cc1c(CCC(=O)O)c(=O)oc2cc(OCc3cccc(F)c3)ccc12 | inactive
17 | Cc1nn(CCC(=O)O)c2nc(-c3cccnc3)cc(C(F)(F)F)c12 | inactive
18 | Cc1cc(N2CCOCC2)n2cc(-c3ccccc3)nc2n1 | inactive
19 | COc1ccc(C(=O)/C=C/c2ccc(OC)cc2OC)c(O)c1 | inactive

Row | SMILES | activity change, negative = inhibition
20 | CCOC(=O)c1ccc(NC(=O)N2CCN(Cc3ccccc3)CC2)cc1 | inactive
21 | CN1CCN(c2ccc([N+](=O)[O-])c(Sc3nncn3C)c2)CC1 | inactive
22 | Cc1cc(C)n(-c2nc3ccccc3c(=O)n2OCC(=O)N(C)C)n1 | inactive
23 | Cc1ccc(C2(COC(=O)C(C)C)CO2)c(OC(=O)C(C)C)c1 (configuration not stated) | inactive
24 | COc1ccc(C2C3=C(CC(C)(C)CC3=O)Nc3n[nH]c(C)c32)cc1 (configuration not stated) | inactive
25 | COc1nc(-c2ccccc2)ccc1-c1noc(-c2ccccc2F)n1 | inactive
26 | CC(C)CNC(=O)COc1cccc(C(=O)NCc2ccccc2)c1 | inactive
27 | O=C(O)c1ccc(N/N=C/c2ccc(-c3ccccc3Cl)o2)cc1 | inactive
28 | COc1cc(-c2nc3ccccn3c2/N=C/c2cc(OC)c(OC)c(OC)c2)ccc1O | inactive
29 | CCCCNC(=O)C(CC)Sc1nc2sc(C(=O)OC)c(C)c2c(=O)n1N (configuration not stated) | inactive
30 | COCCCNC(=O)c1cc2cc3cc(OC)ccc3nc2o1 | inactive
31 | CCc1nnc(NC(=O)c2ccc(NS(=O)(=O)c3ccccc3)cc2)s1 | inactive
32 | O=C(Nc1cc(Cl)cc(Cl)c1)c1coc(=O)c(Br)c1 | inactive
33 | O=C(C1CCC(=O)N(C2CC2)C1)N1CCN(c2ccccc2Cl)CC1 (configuration not stated) | inactive
34 | CC(Cc1cccs1)NC(=O)Nc1ccc([N+](=O)[O-])cc1 (configuration not stated) | inactive
35 | O=C(COC(=O)c1ccc(S(=O)(=O)N2CCCC2)cc1)NCc1ccccc1 | inactive
36 | O=C1CCCC(O)=C1N=Nc1ccc2ncsc2c1 | inactive
37 | COc1ccc(OCC(=O)NS(=O)(=O)c2ccc(Cl)cc2)cc1 | inactive
